Data on 15 compounds can be found in US8877757B2, “Pyrazine derivatives and use as PI3K inhibitors” (Merck Serono SA, priority 2005, dated 2014).

A word on the IC50: it is the point on the concentration scale where inhibition reaches its midpoint.

The first experiment concerns PKB/Akt phosphorylation in mast cells. The experiment in a line: SCF-induced PKB/Akt phosphorylation in mast cells. In kind it is cell-based, mice. Conditions: Mast cell, 0.25 h; mast cells derived from mouse bone marrow, 20 ng/mL SCF for 15 minutes; read-out: IC50, inhibition of SCF-induced Akt Phosphorylation. As for the experimental part:
Protocol: Primary bone marrow cells were isolated from 4-8 weeks old wild type mice and derived to mast cells by incubation with medium containing 20 ng/mL of stem cell factor (SCF) (PeproTech, Switzerland) and 20 ng/mL of IL-3 (PeproTech, Switzerland) for at least 4 weeks. Confirmation of the expression of mast cell specific surface markers was done by FACS analysis using antibodies against c-kit (cKit-PE mouse antibody; Pharmingen). Cells were maintained in culture in the presence of SCF and IL-3. To induce PKB/Akt phosphorylation, mast cells were resuspended at 2.5×10^6 cells/mL and starved in medium containing no SCF or IL-3 for 24 h. After preincubation with compounds or 1% DMSO for 20 minutes, cells were activated with 20 ng/mL of SCF for 15 minutes at 37° C., fixed in 1.5% paraformaldehyde for 20 minutes and permeabilised with 0.2% Triton X-100 for 10 minutes, at room temperature. PKB/Akt phosphorylation was visualized using phospho-Ser-473 specific Akt antibodies (Cell Signaling) and standard FACS protocols.
Regarding `COc1cc(Nc2nc3ccccc3nc2NS(=O)(=O)c2ccc(F)cc2)cc(OC)c1` [Example 56, N-{3-[(3,5-dimethoxyphenyl)amino]quinoxalin-2-yl}-4-fluorobenzene Sulfonamide], the IC50 is 2420 nM.

In the case of `COc1cc(Nc2nc3ccccc3nc2NS(=O)(=O)c2cccnc2)cc(OC)c1` [Example 95, N-{3-[(3,5-dimethoxyphenyl)amino]quinoxalin-2-yl}pyridine-3-sulfonamide], the IC50 worked out at 1600 nM.

Regarding `COc1cc(Nc2nc3ccccc3nc2NS(=O)(=O)c2ccc(C)nc2)cc(OC)c1` [Example 106, N-{3-[(3,5-dimethoxyphenyl)amino]quinoxalin-2-yl}-6-methylpyridine-3-sulfonamide], the IC50 turned out to be 1220 nM.

Turning to `COc1ccc(C)c(Nc2nc3ccccc3nc2NS(=O)(=O)c2ccc(C#N)cc2)c1` [Example 109, 4-cyano-N-{3-[(5-methoxy-2-methylphenyl)amino]quinoxalin-2-yl}benzenesulfonamide], the IC50 amounted to 820 nM.

For the compound `COc1cc(Nc2nc3ccccc3nc2NS(=O)(=O)c2cccc(CO)c2)cc(OC)c1` [Example 132, N-{3-[(3,5-dimethoxyphenyl)amino]quinoxalin-2-yl}-3-(hydroxymethyl)benzenesulfonamide], the IC50 came out at 680 nM.

Take `COc1cc(Nc2nc3ccccc3nc2NS(=O)(=O)c2ccc(CO)cc2)cc(OC)c1` [Example 134, N-{3-[(3,5-dimethoxyphenyl)amino]quinoxalin-2-yl}-4-(hydroxymethyl)benzenesulfonamide]: the IC50 amounted to 210 nM.

In the case of `COc1cc(Nc2nc3ccccc3nc2NS(=O)(=O)c2ccc(CO)nc2)cc(OC)c1` [Example 135, N-{3-[(3,5-dimethoxyphenyl)amino]quinoxalin-2-yl}-6-(hydroxymethyl)pyridine-3-sulfonamide], the IC50 was determined as 540 nM.

In the case of `COc1cc(Nc2nc3ccccc3nc2NS(=O)(=O)c2ccc(CN3CCN(C)CC3)nc2)cc(OC)c1` [Example 149, N-{3-[(3,5-dimethoxyphenyl)amino]quinoxalin-2-yl}-6-[(4-methylpiperazin-1-yl)methyl]pyridine-3-sulfonamide], the IC50 amounted to 390 nM.

Another experiment concerns Akt phosphorylation in B cells. The experiment in a line: IgM-induced Akt phosphorylation in B cell (human PBMC, flow cytometry). The note with it: 5 min, CD19+ IgM+ B cells in human PBMC, anti IgM for 5 minutes, read-out: IC50, inhibition of IgM-induced Akt Phosphorylation. In kind it is cell-based. The method, then: Human PBMC were prepared from a Buffy coat (Geneve Hospital) after a Ficoll gradient (FICOLL-PAQUE Plus PHARMACIA ref: 17-1440-03).
Cell concentration was adjusted to 10^6 cells per ml in RPMI (GIBCO Ref: 72400-21) without serum. Before stimulation, 90 μl of PBMC suspension was incubated with 10 μl of diluted compound in a 96 well round bottom plate for 20 minutes at 37° C.
For B cell activation, 30 μl of Fab′2 Goat anti IgM (Jackson Immuno-research) at 10 μg/ml was added to each well. After 5 minutes, cell activation was stopped with 4% paraformaldehyde (10 minutes at room temperature).
Fixed PBMC were then treated for 20 minutes with 0.15% Triton, washed twice with PBS and permeabilized with 50% methanol for 15 minutes.
PBMC were washed twice in PBS, resuspended in: PBS-4% FCS and incubated with anti P-Akt (1/100 dilution) for one hour at room temperature.
After one wash, PBMC were further stained for 30 minutes with a mixture of anti-CD19-PE (BD Biosciences), anti-IgM-FITC (BD Biosciences) and goat anti rabbit IgG-Alexa 647 (Molecular probe).
After washing, PBMC (Peripheral Blood Mononuclear Cells) were analysed on a FACSCalibur instrument (BD Biosciences) equipped with a 633 helium-neon laser, or stored at 4° C. for further analysis. 510^3 B cells events were gathered per sample in the CD19 positive region.
For the analysis, a threshold was applied on P-Akt histogram of CD 19+ IgM+ lymphocytes cells from the non-stimulated samples and the percentage of cells above this threshold was determined for each sample.
For the compound `COc1ccc(OC)c(Nc2nc3ccccc3nc2NS(=O)(=O)c2ccccc2F)c1` [Example 14, N-{3-[(2,5-dimethoxyphenyl)amino]quinoxalin-2-yl}-2-fluorobenzene sulfonamide], the IC50 was 34 nM.

In the case of `COc1cc(Nc2nc3ccccc3nc2NS(=O)(=O)c2ccccc2F)cc(OC)c1` [Example 15, N-{3-[(3,5-dimethoxyphenyl)amino]quinoxalin-2-yl}-2-fluorobenzene sulfonamide], the IC50 worked out at 26 nM.

As for `COc1ccc(OC)c(Nc2nc3ccccc3nc2NS(=O)(=O)c2ccccc2Cl)c1` [Example 42, 2-chloro-N-{3-[(2,5-dimethoxyphenyl)amino]quinoxalin-2-yl}benzene sulfonamide], the IC50 came to 110 nM.

With `COc1ccc(C)c(Nc2nc3ccccc3nc2NS(=O)(=O)c2cccnc2)c1` [Example 101, N-{3-[(5-methoxy-2-methylphenyl)amino]quinoxalin-2-yl}pyridine-3-sulfonamide], the IC50 was determined as 150 nM.

For `COc1ccc(C)c(Nc2nc3ccccc3nc2NS(=O)(=O)c2ccc(C)nc2)c1` [Example 110, N-{3-[(5-methoxy-2-methylphenyl)amino]quinoxalin-2-yl}-6-methylpyridine-3-sulfonamide], the IC50 was 140 nM.

As for `COc1ccc(Cl)c(Nc2nc3ccccc3nc2NS(=O)(=O)c2ccc(C)nc2)c1` [Example 111, N-{3-[(2-chloro-5-methoxyphenyl)amino]quinoxalin-2-yl}-6-methylpyridine-3-sulfonamide], the IC50 came to 26 nM.

In the case of `COc1cc(Nc2nc3ccccc3nc2NS(=O)(=O)c2cccc(CN3CCOCC3)c2)cc(OC)c1` [Example 129, N-{3-[(3,5-dimethoxyphenyl)amino]quinoxalin-2-yl}-3-(morpholin-4-ylmethyl)benzenesulfonamide], the IC50 was 290 nM.
